Test results published in patent US8080523B2 (The Regents of the University of California, priority 2004, dated 2011).
Positions of bridges follow the written chain, without caps; N, C: chain ends. Residues, ends and D or L forms follow the SMILES beside them.

Tests used:
Assay type in all cases: cell-based
[1] = biological target: Kv1.5 (Homo sapiens, UniProt P22460); experiment: Ion channel specificity panel: Kv1.5
Description: (§1) Margatoxin, a peptide from scorpion venom that has been touted as a specific Kv1.3 inhibitor (Koo et al., 1997; Lin et al., 1993; Middleton et al., 2003) was also not specific.

[2] = biological target: T1, Kv1.1 (Mus musculus, UniProt P16388); experiment: Patch-clamp block of Kv1.1 channels stably expressed in L929 cells
T1 construct: expressed in transfected cells
Description: (§2) Kds were determined from the dose-response curves shown using Microcal Origin software.

[3] = system: Kv1.2; experiment: Ion channel specificity panel: Kv1.2
Description: as §1

[4] = biological target: Kv1.6 (Homo sapiens, UniProt P17658); experiment: Ion channel specificity panel: Kv1.6
Description: as §1

[5] = biological target: Kv3.2; experiment: Ion channel specificity panel: Kv3.2
Description: as §1

[6] = biological target: T2, Kv1.3 (Mus musculus, UniProt P16390); experiment: Patch-clamp block of Kv1.3 channels stably expressed in L929 cells; settings: cloned channel, dose-response curves
T2 construct: expressed in transfected cells
Description: as §2

[7] = biological target: Kv1.2 (UniProt P63142); experiment: Ion channel specificity panel: Kv1.2; settings: read-out: Kd on Kv1.2
Description: as §1

T1 sequence (P16388 whole entry): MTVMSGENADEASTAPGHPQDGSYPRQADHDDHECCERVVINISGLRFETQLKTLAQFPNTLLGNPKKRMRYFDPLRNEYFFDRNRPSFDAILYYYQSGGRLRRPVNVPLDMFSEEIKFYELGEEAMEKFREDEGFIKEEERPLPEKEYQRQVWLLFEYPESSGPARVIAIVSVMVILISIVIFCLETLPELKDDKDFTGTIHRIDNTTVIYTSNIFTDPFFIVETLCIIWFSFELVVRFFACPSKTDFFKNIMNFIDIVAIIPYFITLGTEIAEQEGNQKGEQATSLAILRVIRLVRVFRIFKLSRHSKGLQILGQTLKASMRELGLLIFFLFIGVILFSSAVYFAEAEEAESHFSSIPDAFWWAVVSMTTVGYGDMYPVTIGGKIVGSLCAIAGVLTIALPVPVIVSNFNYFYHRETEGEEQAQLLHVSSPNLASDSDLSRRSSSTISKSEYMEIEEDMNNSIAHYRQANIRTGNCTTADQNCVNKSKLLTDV
Kv1.6, sequence (P17658 whole entry): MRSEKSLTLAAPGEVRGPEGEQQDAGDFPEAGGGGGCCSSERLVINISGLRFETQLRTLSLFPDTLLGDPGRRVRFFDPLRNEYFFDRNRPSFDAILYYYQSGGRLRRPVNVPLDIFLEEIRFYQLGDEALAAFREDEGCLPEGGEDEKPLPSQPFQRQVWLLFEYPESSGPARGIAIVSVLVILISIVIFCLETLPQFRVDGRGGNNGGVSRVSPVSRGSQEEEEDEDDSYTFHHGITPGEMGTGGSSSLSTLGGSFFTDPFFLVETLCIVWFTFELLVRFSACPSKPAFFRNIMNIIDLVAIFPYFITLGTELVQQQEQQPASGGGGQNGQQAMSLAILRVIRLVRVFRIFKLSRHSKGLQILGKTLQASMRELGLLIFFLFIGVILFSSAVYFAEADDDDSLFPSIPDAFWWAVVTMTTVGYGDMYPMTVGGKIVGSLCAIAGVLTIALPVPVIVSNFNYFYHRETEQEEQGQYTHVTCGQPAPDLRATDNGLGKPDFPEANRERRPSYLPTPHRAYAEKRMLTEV
Kv1.5, sequence (P22460 whole entry): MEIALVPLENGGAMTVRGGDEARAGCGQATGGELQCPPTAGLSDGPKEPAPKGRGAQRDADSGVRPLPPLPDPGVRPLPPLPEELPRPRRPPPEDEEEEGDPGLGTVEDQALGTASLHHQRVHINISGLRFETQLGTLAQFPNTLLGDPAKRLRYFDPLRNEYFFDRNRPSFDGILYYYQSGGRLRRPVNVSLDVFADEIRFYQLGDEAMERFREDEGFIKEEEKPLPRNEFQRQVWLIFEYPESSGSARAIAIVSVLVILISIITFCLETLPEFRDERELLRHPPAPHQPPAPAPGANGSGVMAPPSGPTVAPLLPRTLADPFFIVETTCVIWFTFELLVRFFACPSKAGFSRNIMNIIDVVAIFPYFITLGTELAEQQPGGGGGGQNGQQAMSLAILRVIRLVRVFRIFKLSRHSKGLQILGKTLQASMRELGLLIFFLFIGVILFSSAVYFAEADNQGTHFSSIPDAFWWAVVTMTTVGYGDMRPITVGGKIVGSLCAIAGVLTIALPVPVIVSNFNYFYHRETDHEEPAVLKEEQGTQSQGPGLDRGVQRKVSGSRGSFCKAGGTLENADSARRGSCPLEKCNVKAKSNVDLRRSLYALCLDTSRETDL
T2 sequence (P16390 whole entry): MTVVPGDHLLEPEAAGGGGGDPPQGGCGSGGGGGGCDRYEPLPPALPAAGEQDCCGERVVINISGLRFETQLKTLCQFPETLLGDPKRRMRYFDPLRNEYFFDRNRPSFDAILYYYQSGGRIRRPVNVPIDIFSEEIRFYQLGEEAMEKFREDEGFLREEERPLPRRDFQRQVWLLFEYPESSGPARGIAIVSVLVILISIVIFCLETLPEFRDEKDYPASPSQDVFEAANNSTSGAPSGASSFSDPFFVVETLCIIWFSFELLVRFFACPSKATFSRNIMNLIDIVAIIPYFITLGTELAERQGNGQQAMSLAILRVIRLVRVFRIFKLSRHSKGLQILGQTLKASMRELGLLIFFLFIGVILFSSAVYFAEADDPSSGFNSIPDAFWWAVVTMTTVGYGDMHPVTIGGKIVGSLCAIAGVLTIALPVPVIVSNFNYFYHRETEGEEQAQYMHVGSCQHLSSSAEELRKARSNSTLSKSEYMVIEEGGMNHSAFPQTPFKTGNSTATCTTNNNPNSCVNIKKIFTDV

Compound: O=c1cc(-c2ccc(O)c(O)c2)oc2cc(O)cc(O)c12 [Luteolin]
- selectivity for Kv1.3 over Kv1.5 [1]: no selectivity
- selectivity for Kv1.3 over Kv1.1 [2]: no selectivity
- selectivity for Kv1.3 over Kv1.2 [3]: no selectivity

Compound: CC[C@H](C)[C@H](NC(=O)[C@@H](N)[C@@H](C)O)C(=O)N[C@H](C(=O)N[C@@H](CC(N)=O)C(=O)N[C@H](C(=O)N[C@@H](CCCCN)C(=O)N[C@H]1CSSC[C@@H]2NC(=O)[C@H](CCCCN)NC(=O)[C@H](C)NC(=O)CNC(=O)[C@H](C)NC(=O)[C@H](CO)NC(=O)[C@H](CCC(N)=O)NC(=O)CNC(=O)[C@H](Cc3ccccc3)NC(=O)[C@H](CCC(N)=O)NC(=O)[C@H](C)NC(=O)[C@H](CCCCN)NC(=O)[C@@H]3CSSC[C@@H](C(=O)N[C@@H](Cc4ccc(O)cc4)C(=O)N4CCC[C@H]4C(=O)N[C@@H](Cc4c[nH]cn4)C(=O)O)NC(=O)[C@H](CCCCN)NC(=O)[C@H](CSSC[C@H](NC(=O)[C@H](CCC(N)=O)NC(=O)[C@H](CCCCN)NC(=O)[C@@H]4CCCN4C(=O)[C@H](CO)NC(=O)[C@H]([C@@H](C)O)NC1=O)C(=O)N[C@@H](CC(C)C)C(=O)N1CCC[C@H]1C(=O)N1CCC[C@H]1C(=O)N3)NC(=O)[C@H](CCCCN)NC(=O)CNC(=O)[C@H](CC(N)=O)NC(=O)[C@H](CCSC)NC2=O)C(C)C)[C@@H](C)CC [Margatoxin] (H-TIINVKCTSPKQCLPPCKAQFGQSAGAKCMNGKCKCYPH-OH; disulfide 7-29, 13-34, 17-36; N-terminus and C-terminus assumed)
- Kd [4]: > 100 nM
- selectivity for Kv1.3 over Kv1.6 [4]: > 1000 fold
- Kd [2]: 10 ± 1 nM
- selectivity for Kv1.3 over Kv1.1 [2]: 9 fold
- Kd [5]: > 100 nM
- selectivity for Kv1.3 over Kv3.2 [5]: > 1000 fold
- Kd [6]: 0.11 ± 0.012 nM
- selectivity for Kv1.3 over Kv1.2 [3]: 5 fold
- Kd [7]: 0.52 ± 0.001 nM
